Values quoted from earlier work as cited in patent US20110142766A1, “Effervescent Multi-Vitamin Formulation and Methods of Use Thereof” (priority 2009, published 2011).

Experiments:
[1] = test system: vision loss; conditions: group treated with zinc compared with a group treated with a placebo
[2] = test system: age-related macular degeneration

**Q.** With [Zn] [zinc] as the compound, how does the “reduction in vision loss” value [1] read?
**A.** statistically significant reduction in vision loss

**Q.** What about the “reduction of risk of (central) vision loss” value ([2]; people at high risk for developing advanced AMD) of the same compound?
**A.** about 11%

**Q.** And the “reduction of risk of developing advanced stages of AMD” value ([2]; people at high risk for developing advanced AMD (intermediate AMD, or advanced AMD in one eye only))?
**A.** about 21%
